In patent US20200188388A1, “METHODS AND COMPOSITIONS FOR PO[…] DRUGS AND REDUCING THEIR SIDE EFFECTS” (RVX THERAPEUTICS LTD., priority 2016, published 2020):

Columns and labels:
Wistar rats [1] = assay: Rotenone model: hyperkinetic side effect in open field test (days 10 and 18); type: in vivo, rat; conditions: locomotive activity in OF test increased more than 50% vs first day
Protocol: Anti-parkinsonian effect of therapy in rats with rotenone-induced PD was estimated according to elimination of extrapyramidal disorders (catalepsy) and oligokinesia (rapid decreased amplitude and velocity of repeated movements) in the “open field” test. The neuro-protective effect of therapy was evaluated by the elimination of ataxia limb dystonia and mortality in rats with rotenone-induced PSP. Hyperkinetic side action (hyper-locomotion) was evaluated by increased horizontal and vertical activity in the open field at the 10th and 18th day of the experiment, calculated in % compared to the first day of the experiment.
Ataxia and limb dystonia registration was performed twice daily, 30 minutes before administration of rotenone and 180 minutes after administration of rotenone. For each experimental group on a daily basis, throughout the whole period of observation number of rats with severe ataxia and limb dystonia (++−+++) and mortality in % of the total number of rats in group was determined. The neuro-protective effect of therapy (effects on rate of ataxia, limb dystonia and lethality) in rats with PSP was determined at days 12 and 19 of the experiment as reducing the number of rats with severe ataxia limb dystonia and mortality in % compared to control. Side hyperkinetic effects were evaluated in the “open field” test. In this test the locomotive activity in rats is determined. […] Registration of horizontal and vertical locomotive activity in OF assay was performed on the 10th and 18th day of the experiment, within 40 minutes after administration of the substance and 5 minutes before administration of rotenone. Side hyperkinetic effects was evaluated by the number of rats with a significant (at least 50% compared with the first day of the experiment) increase in horizontal and vertical activity (hyperkinesia) as a % of the total number of rats in group.
Anti-parkinsonian effect of therapy in rats with rotenone-induced parkinsonism was estimated according to elimination of extrapyramidal disorders (catalepsy) and oligokinesia in the “open field” test. The neuro-protective effect of therapy was evaluated by the elimination of ataxia and mortality in rats with rotenone-induced PSP. Hyperkinetic side action (hyper-locomotion) was evaluated by increased horizontal and vertical activity in the open field at the 10th and 18th day of the experiment, calculated in % compared to the first day of the experiment.
The neuro-protective effect in the experimental groups of rats with rotenone-induced PSP was evaluated due the elimination of ataxia and mortality caused by neurotoxic action of rotenone. Ataxia is typical incoordination neurotoxic effect of rotenone manifested in uncoordinated movements and hyper-locomotion, replaced by hypokinesia and stereotypes, and in severe cases a complete violation of antigravity reflexes, falling on its side and akinesia. Assessment of the severity of ataxia in scores was performed using the following scale: (+) uncoordinated movement, hyperkinesia; (++) significant incoordination, hypokinesia, stereotypes, falling on its side; (+++) complete violation of antigravity reflexes, akinesia. Ataxia registration was performed twice daily, 30 minutes before administration of rotenone and 180 minutes after administration of rotenone. For each experimental group on a daily basis, throughout the whole period of observation number of rats with severe ataxia (++−+++) and mortality in % of the total number of rats in group was determined. The neuro-protective effect of therapy (effects on rate of ataxia and lethality) in rats with PSP was determined at days 12 and 19 of the experiment as reducing the number of rats with severe ataxia and mortality in % compared to control. Side hyperkinetic effects were evaluated in the “open field” test. In this test the locomotive activity in rats is determined. […]

Wistar rats [2] = assay: Rotenone-induced PD: severe oligokinesia in open field test; type: in vivo, rat; conditions: oligokinesia ++-+++ in OF test
Protocol: Locomotive activity of rats was tested in the “open field” test. […] Registration of horizontal and vertical locomotive activity was carried out in first day for rats with high selection locomotive activity (total walking time with not less than 12 seconds and the number of vertical uprights at least 4), 60 minutes before the first administration of rotenone. To identify the rotenone-induced oligokinesia in each experimental group the locomotive activity in the open field test was examined again 2 hours after the administration of rotenone on days 12 and 19 of the experiment.
(§1) Quantification of oligokinesia in points: 0 points—the highest horizontal activity (walking total time more than 12 seconds) and high vertical activity (number of vertical posts) more than 3; 1 point—reducing the horizontal activity (total walking time 7-11 seconds) and a decrease in vertical activity (the number of vertical columns 1-3); 2 points—a significant reduction in horizontal activity (total walking time 2-6 seconds) and the absence of vertical activity (the number of vertical columns 0-1); 3 points—the absence of horizontal activity (total walking time 0-1 seconds) and the absence of vertical activity (number of vertical columns 0). In each experimental group 120 minutes after administration of rotenone on days 12 and 19 of experiment the number of rats with severe oligokinesia (2-3 points) in % of the total number of rats in group was determined.
Locomotive activity of rats was tested in the “open field” test. […] Registration of horizontal and vertical locomotive activity was carried out in first day for rats with high selection locomotive activity (total walking time with not less than 12 seconds and the number of vertical uprights at least 4), 60 minutes before the first administration of rotenone. To identify the rotenone-induced oligokynesia in each experimental group the locomotive activity in the open field test was examined again 2 hours after the administration of rotenone on days 12 and 19 of the experiment.
as §1, with “of oligokynesia” for “of oligokinesia”

| Compound | Hyperkmesia (% of group) (Wistar rats [1]; Day 10, levodopa 10 mg/kg oral) | Hyperkmesia (% of group) (Wistar rats [1]; Day 10, levodopa 20 mg/kg oral) | Hyperkmesia (% of group) (Wistar rats [1]; Day 18, levodopa 10 mg/kg oral) | Hyperkmesia (% of group) (Wistar rats [1]; Day 18, levodopa 20 mg/kg oral) | Severe oligokinesia (% of group) (Wistar rats [2]; Day 12, levodopa 10 mg/kg oral) | Severe oligokinesia (% of group) (Wistar rats [2]; Day 12, levodopa 20 mg/kg oral) | Severe oligokinesia (% of group) (Wistar rats [2]; Day 19, levodopa 10 mg/kg oral) | Severe oligokinesia (% of group) (Wistar rats [2]; Day 19, levodopa 20 mg/kg oral) | Hyperkmesia (% of group) (Wistar rats [1]; Day 10, memantine 5 mg/kg oral) | Hyperkmesia (% of group) (Wistar rats [1]; Day 18, memantine 5 mg/kg oral) | Severe oligokinesia (% of group) (Wistar rats [2]; Day 12, memantine 5 mg/kg oral) | Severe oligokinesia (% of group) (Wistar rats [2]; Day 19, memantine 5 mg/kg oral) |
| --- | --- | --- | --- | --- | --- | --- | --- | --- | --- | --- | --- | --- |
| N[C@@H](Cc1ccc(O)c(O)c1)C(=O)O [Levodopa, L-3,4-dihydroxyphenylalanine] | 0 % of group | 88 % of group | 0 % of group | 75 % of group | 86 % of group | 50 % of group | 100 % of group | 63 % of group |  |  |  |  |
| CC12CC3CC(C)(C1)CC(N)(C3)C2 [Memantine, memantine] |  |  |  |  |  |  |  |  | 40 % of group | 60 % of group | 50 % of group | 50 % of group |
